We go through 19 compounds from US20120214847A1, “2-[1-PHENYL-5-HYDROXY-4a-SUBSTITUTED-HEXAHYDROCYCLOPENTA[F]INDAZOL-5-YL]ETHYL PHENYL DERIVATIVES AS GLUCOCORTICOID RECEPTOR LIGANDS” (Merck Sharp & Dohme Corp., priority 2009, published 2012).

Each structure is given as a SMILES string.

The assay deals with T1, human GR (Homo sapiens, UniProt P04150).
T1 construct: naturally expresses the human GR; endogenous in cells
T1 sequence (P04150 1-777): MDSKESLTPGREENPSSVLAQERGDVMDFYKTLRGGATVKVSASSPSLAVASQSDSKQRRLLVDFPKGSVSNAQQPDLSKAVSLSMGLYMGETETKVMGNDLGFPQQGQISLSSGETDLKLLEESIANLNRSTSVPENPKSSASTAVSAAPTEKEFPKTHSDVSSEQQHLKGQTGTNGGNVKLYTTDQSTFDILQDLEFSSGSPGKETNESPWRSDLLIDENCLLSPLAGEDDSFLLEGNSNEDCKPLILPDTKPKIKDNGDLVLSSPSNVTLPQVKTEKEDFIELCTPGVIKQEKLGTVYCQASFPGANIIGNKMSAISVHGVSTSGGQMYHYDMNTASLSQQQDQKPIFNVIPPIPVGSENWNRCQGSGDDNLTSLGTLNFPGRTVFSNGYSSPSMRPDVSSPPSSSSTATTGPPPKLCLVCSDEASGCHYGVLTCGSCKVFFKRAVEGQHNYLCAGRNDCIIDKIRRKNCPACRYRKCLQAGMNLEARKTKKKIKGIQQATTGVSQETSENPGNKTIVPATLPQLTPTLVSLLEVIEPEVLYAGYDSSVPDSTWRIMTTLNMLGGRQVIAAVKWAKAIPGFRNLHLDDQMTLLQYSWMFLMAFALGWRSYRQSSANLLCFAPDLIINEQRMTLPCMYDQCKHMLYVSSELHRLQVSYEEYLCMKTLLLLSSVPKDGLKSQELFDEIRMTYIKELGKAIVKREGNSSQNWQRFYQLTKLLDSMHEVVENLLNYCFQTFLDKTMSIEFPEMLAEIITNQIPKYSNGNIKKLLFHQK
Briefly: Transrepression assay (GITAR), TNFα-β-lactamase reporter in U937 cells. In kind it is cell-based. To be noted: for EC50: IP = inflection point; for Emax: U-937, U937 cells. From the text:
Transrepression Assay (GITAR)
This assay assesses the ability of test compounds to control transcription from the TNFα-β-lactamase reporter gene in U937 cells, a human myelomonocytic leukemia cell line that naturally expresses the human GR. The assay measures compound dependent-repression of the TNFa promoter linked to a reporter gene.
The human U937 cells that had been stablely transfected with the TNF-a promoter driving ˜-lactamase are used for this assay. U937 cells contain an endogenous glucocorticoid receptor (GR). Cells are maintained in RPMI 1640 Growth medium (GibcoCat#11875-093) containing 25 mM HEPES, 10% FBS, 2 mM L-Glutamine, 1 mM Sodium pyruvate, 25 μg/ml Gentamicin (Gibed Cat#1571 0-064), 1:1000 2-Mercaptoethanol (Gibco Cat#21985-023) and 0.8 mg/ml G418 (Gibco Cat#10131-027). The density of the cells in the flask needs to be about 1×10^6-3×10^6/ml at the time of harvest. Usually, the cells are split to 1.2˜1.4×10^5/ml (1:10) 3 days prior to the assay. 50,000 cells/well are plated in 96 well black-walled plates the day of assay. Test compounds are added 10 J.lL/well, and cells are incubated at 37° C. for 30˜45 min. For assaying compounds, first dilute 1:10 in DMSO to make 1 mM, then further dilute 1:100 in medium to make 10× stock prior to adding to the cells. Add 50 ng/ml PMA (Sigma, cat#P8139) 10 μL/well to a final concentration 5 ng/ml, and 1 μg/ml LPS (Sigma, cat#L4130) 10 μL/well to a final concentration 100 ng/ml. Incubate cells at 370 C overnight for −18 hr. PMA is stored frozen as […] in DMSO. Dilute 1:10 in DMSO for a working stock of 10 μg/ml and store at −20° C. For assaying, dilute the 10 μg/ml working stock 1:200 in medium to make a 10× solution (50 ng/ml). Store frozen LPS at 1 mg/ml in PBS, dilute 1:1000 in medium to make 10×μg/ml) for the assay. Add 6× loading buffer (CCF2-AM) 20 μL/well, and incubate at room temperature for 70-90 min. […] The activity repressed by 100 nM dexamethasone alone is set as 100% activity.

Setting [1] is: activity repressed by 100 nM dexamethasone alone set as 100%.

Consider `CC(C)(CO)NC(=O)c1ccccc1CC[C@]1(O)CCC2=Cc3c(cnn3-c3ccc(F)cc3)C[C@@]21C1CC1` [Example 45, 2-{2-[(4aR,5R)-4a-Cyclopropyl-1-(4-fluorophenyl)-5-hydroxy-1,4,4a,5,6,7-hexahydrocyclopenta[f]indazol-5-yl]ethyl}-N-(1-hydroxy-2-methylpropan-2-yl)benzamide], for which the EC50 (in general, the concentration at which the effect is half-maximal) (U937 cells) stood at 0.009 µM. Moreover, the Emax (usually the size of the effect at its maximum, as opposed to the concentration needed) under setting [1] came to 85%.
The like results for `CC[C@]12Cc3cnn(-c4ccc(F)cc4)c3C=C1CC[C@@]2(O)CC(O)c1ccc(F)cn1` (single isomer, unassigned) [Example 69a] were, in that order, 0.111 µM and 74%.
The like results for `N#Cc1cccnc1CC[C@]1(O)CCC2=Cc3c(cnn3-c3ccc(F)cc3)C[C@@]21C1CC1` [Example 31, 2-{2-[(4aR,5R)-4a-Cyclopropyl-1-(4-fluorophenyl)-5-hydroxy-1,4,4a,5,6,7-hexahydrocyclopenta[f]indazol-5-yl]ethyl}pyridine-3-carbonitrile] were, in that order, 0.013 µM and 89%.
Compound `COc1cccc(CC[C@]2(O)CCC3=Cc4c(cnn4-c4ccc(F)cc4)C[C@@]32C2CC2)c1C(N)=O` [Example 38, 2-{2-[(4aR,5R)-4a-Cyclopropyl-1-(4-fluorophenyl)-5-hydroxy-1,4,4a,5,6,7-hexahydrocyclopenta[f]indazol-5-yl]ethyl}-6-methoxybenzamide] had a concentration giving a half-maximal response (EC50) (U937 cells) of 0.011 µM. For the same compound, under setting [1], the Emax was 74%.
The like results for `CC[C@]12Cc3cnn(-c4ccc(F)cc4)c3C=C1CC[C@@]2(O)CC(O)c1c(F)ccnc1Cl` (stereo partly drawn) [Example 74, (4aS,5R)-5-[2-(2-Chloro-4-fluoropyridin-3-yl)-2-hydroxyethyl]-4a-ethyl-1-(4-fluorophenyl)-1,4,4a,5,6,7-hexahydrocyclopenta[f]indazol-5-ol] were, in that order, 0.103 µM and 72%.
Where the note is “U937 cells”, `CC[C@]12Cc3cnn(-c4ccc(F)cc4)c3C=C1CC[C@@]2(O)CCc1ccccc1C(O)C(N)=O` (stereo partly drawn) [Example 26, 2-(2-{2-[(4aS,5R)-4a-Ethyl-1-(4-fluorophenyl)-5-hydroxy-1,4,4a,5,6,7-hexahydrocyclopenta[f]indazol-5-yl]ethyl}phenyl)-2-hydroxyacetamide] yielded an EC50 of 0.051 µM. Further, for the setting “U937 cells, activity repressed by 100 nM dexamethasone alone set as 100%”, the “Transrepression U937 Cells GITAR Emax (%)” value came out at 86%.
As to `CC[C@]12Cc3cnn(-c4ccc(F)cc4)c3C=C1CC[C@@]2(O)CCc1ccc(F)cn1` [Example 19, (4aS,5R)-4a-Ethyl-1-(4-fluorophenyl)-5-[2-(5-fluoropyridin-2-yl)ethyl]-1,4,4a,5,6,7-hexahydrocyclopenta[f]indazol-5-ol], the EC50 (U937 cells) is 0.263 µM. The same compound came in with an Emax under setting [1] of 77%.
Compound `NC(=O)c1ccccc1CC[C@]1(O)CCC2=Cc3c(cnn3-c3cccc(F)c3)C[C@@]21C1CC1` [Example 7, 2-{2-[(4aR,5R)-4a-Cyclopropyl-1-(3-fluorophenyl)-5-hydroxy-1,4,4a,5,6,7-hexahydrocyclopenta[f]indazol-5-yl]ethyl}benzamide] returned an EC50 (U937 cells) of 0.143 µM. Further, the Emax under setting [1] came to 67%.
The compound `NC(=O)CNC(=O)c1cc(F)cnc1CC[C@]1(O)CCC2=Cc3c(cnn3-c3ccc(F)cc3)C[C@@]21C1CC1` [Example 44, N-(2-Amino-2-oxoethyl)-2-{2-[(4aR,5R)-4a-cyclopropyl-1-(4-fluorophenyl)-5-hydroxy-1,4,4a,5,6,7-hexahydrocyclopenta[f]indazol-5-yl]ethyl}-5-fluoropyridine-3-carboxamide] had an EC50 (U937 cells) of 0.038 µM. This compound also yielded an Emax under setting [1] of 86%.
Turning to `CS(=O)(=O)c1ccccc1CC[C@]1(O)CCC2=Cc3c(cnn3-c3ccc(F)cc3)C[C@@]21C1CC1` [Example 58, (4aR,5R)-4a-Cyclopropyl-1-(4-fluorophenyl)-5-{2-[2-(methylsulfonyl)phenyl]ethyl}-1,4,4a,5,6,7-hexahydrocyclopenta[f]indazol-5-ol], the EC50 (U937 cells) was found to be 0.005 µM. Under setting [1], this compound registered an Emax of 88%.
For the setting “U937 cells”, `CC[C@]12Cc3cnn(-c4ccc(F)cc4)c3C=C1CC[C@@]2(O)CC(O)c1cncc(F)c1` (stereo partly drawn) [Example 73, (4aS,5R)-4a-Ethyl-1-(4-fluorophenyl)-5-[2-(5-fluoropyridin-3-yl)-2-hydroxyethyl]-1,4,4a,5,6,7-hexahydrocyclopenta[f]indazol-5-ol] displayed an EC50 of 0.198 µM. This compound registered an Emax under setting [1] of 71%.
The like results for `NC(=O)CNC(=O)c1cccnc1CC[C@]1(O)CCC2=Cc3c(cnn3-c3ccc(F)cc3)C[C@@]21C1CC1` [Example 43, N-(2-Amino-2-oxoethyl)-2-{2-[(4aR,5R)-4a-cyclopropyl-1-(4-fluorophenyl)-5-hydroxy-1,4,4a,5,6,7-hexahydrocyclopenta[f]indazol-5-yl]ethyl}pyridine-3-carboxamide] were, in that order, 0.052 µM and 86%.
With `N#Cc1c(F)cccc1CC[C@]1(O)CCC2=Cc3c(cnn3-c3ccccc3)C[C@@]21C1CC1` [Example 28, 2-{2-[(4aR,5R)-4a-Cyclopropyl-5-hydroxy-1-phenyl-1,4,4a,5,6,7-hexahydrocyclopenta[f]indazol-5-yl]ethyl}-6-fluorobenzonitrile], the EC50 (U937 cells) turned out to be 0.122 µM. The Emax under setting [1] was 88%.
In turn, `CC[C@]12Cc3cnn(-c4ccc(F)cc4)c3C=C1CC[C@@]2(O)CCc1nccc(C2CC2)c1C(=O)OC` [Example 41, Methyl 4-cyclopropyl-2-{2-[(4aS,5R)-4a-ethyl-1-(4-fluorophenyl)-5-hydroxy-1,4,4a,5,6,7-hexahydrocyclopenta[f]indazol-5-yl]ethyl}pyridine-3-carboxylate] had an EC50 (U937 cells) of 0.262 µM. Under setting [1], this compound yielded an Emax of 79%.
For the compound `CC[C@]12Cc3cnn(-c4ccccc4)c3C=C1CC[C@@]2(O)CCc1ccccc1C(N)=O` [Example 20, 2-{2-[(4aS,5R)-4a-Ethyl-5-hydroxy-1-phenyl-1,4,4a,5,6,7-hexahydrocyclopenta[f]indazol-5-yl]ethyl}benzamide], where the note is “U937 cells”, a half-maximal response (EC50) required 0.028 µM. The compound also showed an Emax under setting [1] of 86%.
For `CC[C@]12Cc3cnn(-c4ccc(F)cc4)c3C=C1CC[C@@]2(O)CC(O)c1ncccc1F` (stereo partly drawn) [Example 76, (4aS,5R)-4a-Ethyl-1-(4-fluorophenyl)-5-[2-(3-fluoropyridin-2-yl)-2-hydroxyethyl]-1,4,4a,5,6,7-hexahydrocyclopenta[f]indazol-5-ol], where the note is “U937 cells”, a half-maximal response (EC50) required 0.275 µM. This compound also displayed an Emax under setting [1] of 64%.
Compound `N#Cc1ccccc1CC[C@]1(O)CCC2=Cc3c(cnn3-c3cccnc3)C[C@@]21C1CC1` [Example 30, 2-{2-[(4aR,5R)-4a-Cyclopropyl-5-hydroxy-1-(pyridin-3-yl)-1,4,4a,5,6,7-hexahydrocyclopenta[f]indazol-5-yl]ethyl}benzonitrile] gave an EC50 (U937 cells) of 0.178 µM. Under setting [1], this compound came in with an Emax of 63%.
Take `CC[C@]12Cc3cnn(-c4ccc(F)cc4)c3C=C1CC[C@@]2(O)CCc1ccccc1S(=O)(=O)CC` [Example 51, (4aS,5R)-4a-Ethyl-5-{2-[2-(ethylsulfonyl)phenyl]ethyl}-1-(4-fluorophenyl)-1,4,4a,5,6,7-hexahydrocyclopenta[f]indazol-5-ol]: a half-maximal effect (U937 cells) (EC50) was put at 0.065 µM. This compound also came in with an Emax under setting [1] of 83%.
As to `CC[C@]12Cc3cnn(-c4ccc(F)cc4)c3C=C1CC[C@@]2(O)CCc1ncc(F)cc1C(N)=O` [Example 53, 2-{2-[(4aS,5R)-4a-Ethyl-1-(4-fluorophenyl)-5-hydroxy-1,4,4a,5,6,7-hexahydrocyclopenta[f]indazol-5-yl]ethyl}-5-fluoropyridine-3-carboxamide], the EC50 (U937 cells) came out at 0.075 µM. The compound also yielded an Emax under setting [1] of 86%.
